Laboratory results from US8901118B2, “Compounds and methods for kinase modulation, and indications therefor” (Plexxikon Inc., priority 2010, dated 2014).

Key:
Fms kinase = Fms kinase (Homo sapiens, UniProt P07333); assay: Fms kinase biochemical activity assay (AlphaScreen, biotin-(E4Y)10 phosphorylation); conditions: 100 μM ATP; read-out: Biochemical Inhibition IC50 Fms
Procedure: In one assay the biochemical activity IC50 values are determined with respect to inhibition of Fms kinase activity, where inhibition of phosphorylation of a peptide substrate is measured as a function of compound concentration. Compounds to be tested, dissolved in DMSO (1 μL), are added to a white 384-well plate (Costar #3705). Working stocks of Fms kinase (Invitrogen #PV3249), biotin-(E4Y)10 substrate (Upstate Biotech, Cat#12-440), and ATP (Sigma, Cat#A-3377) are prepared in 25 mM Hepes pH 7.5, 0.5 mM MgCl2, 2 mM MnCl2, 2 mM DTT, 0.01% BSA, and 0.01% Tween-20. All components are added to the 384-well plate for a final concentration of 1 ng/well Fms, 30 nM biotin-(E4Y)10 (Upstate Biotechnology) and 100 μM ATP in a volume of 20 μL. Each sample is at 5% DMSO. The plate is then incubated for 20 minutes at 30° C. Just before use, working stocks of donor and acceptor beads from the AlphaScreen PY20 Detection Kit (PerkinElmer, Cat#676601M) are prepared in 25 mM Hepes pH 7.5, pH 7.4, 100 mM EDTA, 0.01% BSA. To stop the reaction, the plate is uncovered in the dark and 5 μL of Donor Beads solution (Streptavidin beads) is added to each well. The plate is incubated at room temperature for 20 minutes. Five microliters of Acceptor Beads solution (PY20 coated beads) are then added to each well. The final concentration of each bead is 10 μg/mL. The plates are incubated at room temperature for 60 minutes. Fluorescence signal is recorded on the Envision reader. Phosphorylated substrate results in binding of the PY20 antibody and association of the donor and acceptor beads such that signal correlates with kinase activity. The signal vs. compound concentration is used to determine the IC50.

CYP1A2 = molecular target: T1, CYP1A2 (Homo sapiens, UniProt P05177); assay: CYP1A2 inhibition (fluorescent substrate CEC); format: in vitro ADME; conditions: read-out: Cyp IC50 1A2
T1 sequence (P05177 1-516): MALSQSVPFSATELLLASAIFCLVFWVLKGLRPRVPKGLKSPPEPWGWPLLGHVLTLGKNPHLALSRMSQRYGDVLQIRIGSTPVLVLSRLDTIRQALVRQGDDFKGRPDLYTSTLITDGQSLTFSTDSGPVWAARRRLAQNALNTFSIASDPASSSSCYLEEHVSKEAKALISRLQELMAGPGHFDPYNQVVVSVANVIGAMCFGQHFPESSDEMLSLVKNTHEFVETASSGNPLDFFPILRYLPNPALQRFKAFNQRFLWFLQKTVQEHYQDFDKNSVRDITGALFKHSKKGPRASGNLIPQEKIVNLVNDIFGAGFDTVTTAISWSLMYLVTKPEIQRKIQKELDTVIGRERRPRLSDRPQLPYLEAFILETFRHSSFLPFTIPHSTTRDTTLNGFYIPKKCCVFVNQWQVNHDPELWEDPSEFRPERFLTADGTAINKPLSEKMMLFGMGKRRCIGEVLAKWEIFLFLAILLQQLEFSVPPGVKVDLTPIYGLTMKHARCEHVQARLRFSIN
Procedure: CYP (Cytochrome P450) enzymes are the major drug metabolizing enzymes present in the liver. The inhibition of CYP enzyme activity (IC50) for each of CYP1A2, CYP2C19, CYP2C9, CYP2D6, CYP3A4(BFC) and CYP3A4(BQ) is determined for compounds, where inhibition of metabolism of a known substrate leads to a decrease in the fluorescence of the metabolized product. The fluorescence of the product is monitored as a function of compound concentration. Compounds are dissolved in DMSO to a concentration of 100 mM. These are diluted 1 μL into 82 μL of acetonitrile. An 11 μL aliquot of this solution is then added to 204 μL of cofactor mix (1.3% NADPH Regeneration system Solution A, 1.04% NADPH Regeneration system Solution B from BD Biosciences, 5% acetonitrile and 0.05% DMSO). These are then serially diluted 1:1 (160 μL to 160 μL co-factor mix) for a total of 10 points. A 10 μL aliquot of this final mixture is dispensed into 384 well assay plates and incubated for 10 minutes at 37° C. […] Assay plates are incubated at 37° C. (CYP1A2-15 min; CYP2C9-45 min; CYP2C19, 2D6 and 3A4-30 min) and read in a Tecan Safire 2 plate reader (CYP1A2, 2C19 and 3A4 409 ex/460 em; CYP2C9 and 2D6 409 ex/530 em). The signal versus compound concentration is used to determine the IC50. The enzymes and substrates for this assay are obtained from BD Biosciences.

[1] = Relative solubility by turbidity in aqueous buffers (pH 1.5, 4.5, 6.8, 7.4); format: physicochemical; conditions: for turbidity threshold (L, M, H) 1.4: pH 1.5 (SGF); for turbidity threshold (L, M, H) 4.5: pH 4.5 (SIF); for turbidity threshold (L, M, H) 6.8: pH 6.8 (SIF); for turbidity threshold (L, M, H) 7.4: pH 7.4 (HEPES)
Procedure: As an indication of relative solubility, the turbidity of compounds in aqueous solutions is assessed. To assess possible compound properties in different physiological compartments, such as stomach, intestine, and blood, a series of aqueous buffers with varying pH is used. Thus each compound is diluted into four different physiologically relevant buffers and solution turbidity is measured by spectrophotometry.
Compounds are dissolved at a concentration of 25 mM in dimethyl sulfoxide, then serially diluted 1:1 into a 96 well plate, diluting 10 times in pure dimethyl sulfoxide, with the final well of each row a dimethyl sulfoxide blank. In an assay plate, 99 μL of appropriate buffer is added to each well, and 1 μL of each sample dilution is added to the buffer, achieving a range of final total concentrations in aqueous solutions having different pH. The buffers used are Simulated Gastric Fluid (SGF-pH 1.5) 0.5M NaCl, pH 1.5; Simulated Intestinal fluid (SIF-pH 4.5 and pH 6.8) 0.05M NaH2PO4, pH 4.5 and 6.8; and Hepes Buffer (HEPES-pH 7.4) 10 mM HEPES, 150 mM NaCl, pH 7.4. Control compounds pyrene, estriol and propranolol HCl are also assessed. Plates are spun and then mixed for 1 minute, and the absorbance is read using a Tecan Safire II to read wavelengths in the visible range (490, 535, and 650 nm) at four locations per well, reflecting the degree of turbidity present. The average optical density for each wavelength in each well is graphed vs. compound concentration, and the concentration at which the curve crosses a threshold O.D. of 0.01 for each wavelength is reported as the endpoint turbidity assay result. The average of the three wavelengths is used to compare turbidity of compounds.

Fms kinase, sequence (P07333 20-972): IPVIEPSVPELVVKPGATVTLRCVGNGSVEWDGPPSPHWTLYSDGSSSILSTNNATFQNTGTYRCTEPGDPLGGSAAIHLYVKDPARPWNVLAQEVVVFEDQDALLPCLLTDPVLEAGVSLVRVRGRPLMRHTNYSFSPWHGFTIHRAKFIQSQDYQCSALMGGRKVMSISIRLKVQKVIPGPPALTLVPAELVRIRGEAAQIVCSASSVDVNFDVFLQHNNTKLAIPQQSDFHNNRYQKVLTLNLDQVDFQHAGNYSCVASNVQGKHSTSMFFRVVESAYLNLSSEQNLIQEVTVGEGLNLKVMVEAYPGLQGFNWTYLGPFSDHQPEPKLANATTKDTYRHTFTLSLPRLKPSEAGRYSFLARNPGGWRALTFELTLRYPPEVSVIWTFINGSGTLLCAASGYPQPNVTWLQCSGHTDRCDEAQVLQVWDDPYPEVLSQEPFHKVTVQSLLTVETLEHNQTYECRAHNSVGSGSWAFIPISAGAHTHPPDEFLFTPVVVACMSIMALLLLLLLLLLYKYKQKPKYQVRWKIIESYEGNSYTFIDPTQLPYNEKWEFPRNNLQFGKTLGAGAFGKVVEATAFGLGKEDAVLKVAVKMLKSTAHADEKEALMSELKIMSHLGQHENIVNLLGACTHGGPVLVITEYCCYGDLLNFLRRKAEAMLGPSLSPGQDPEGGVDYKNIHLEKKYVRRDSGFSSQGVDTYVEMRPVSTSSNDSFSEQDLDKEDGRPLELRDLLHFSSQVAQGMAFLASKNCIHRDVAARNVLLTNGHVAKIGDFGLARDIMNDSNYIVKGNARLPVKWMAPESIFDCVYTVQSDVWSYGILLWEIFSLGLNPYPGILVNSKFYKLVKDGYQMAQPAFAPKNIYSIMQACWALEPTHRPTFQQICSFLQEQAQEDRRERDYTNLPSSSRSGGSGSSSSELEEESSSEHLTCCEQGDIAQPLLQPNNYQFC

CCNc1ncnc2[nH]cc(C(=O)c3ccc(Nc4ccc(C5CC5)nc4)nc3F)c12 [Compound P-4060, [6-[(6-cyclopropyl-3-pyridyl)amino]-2-fluoro-3-pyridyl]-[4-(ethylamino)-7H-pyrrolo[2,3-d]pyrimidin-5-yl]methanone]
IC50 (Fms kinase): < 0.01 µM | IC50 (CYP1A2): > 10 µM | turbidity threshold (L, M, H) 1.4 [1]: H (high solubility if the threshold concentration is >250 μm) | turbidity threshold (L, M, H) 4.5 [1]: M (moderate solubility if the threshold concentration is 31.3 μM to 250 μM) | turbidity threshold (L, M, H) 6.8 [1]: M (moderate solubility if the threshold concentration is 31.3 μM to 250 μM) | turbidity threshold (L, M, H) 7.4 [1]: M (moderate solubility if the threshold concentration is 31.3 μM to 250 μM)

O=C(c1ccc(NC2CCC(F)(F)CC2)nc1F)c1c[nH]c2ncnc(NCC(F)(F)F)c12 [Compound P-4061, [6-[(4,4-difluorocyclohexyl)amino]-2-fluoro-3-pyridyl]-[4-(2,2,2-trifluoroethylamino)-7H-pyrrolo[2,3-d]pyrimidin-5-yl]methanone]
IC50 (Fms kinase): < 0.1 µM | IC50 (CYP1A2): > 10 µM | turbidity threshold (L, M, H) 1.4 [1]: M (moderate solubility if the threshold concentration is 31.3 μM to 250 μM) | turbidity threshold (L, M, H) 4.5 [1]: L (low solubility if the threshold concentration is <31.3 μM) | turbidity threshold (L, M, H) 6.8 [1]: M (moderate solubility if the threshold concentration is 31.3 μM to 250 μM) | turbidity threshold (L, M, H) 7.4 [1]: M (moderate solubility if the threshold concentration is 31.3 μM to 250 μM)

O=C(c1ccc(NC2CCC(F)(F)CC2)nc1F)c1c[nH]c2ncnc(NC3CC3)c12 [Compound P-4062, [4-(cyclopropylamino)-7H-pyrrolo[2,3-d]pyrimidin-5-yl]-[6-[(4,4-difluorocyclohexyl)amino]-2-fluoro-3-pyridyl]methanone]
IC50 (Fms kinase): < 0.01 µM | IC50 (CYP1A2): > 10 µM | turbidity threshold (L, M, H) 1.4 [1]: H (high solubility if the threshold concentration is >250 μm) | turbidity threshold (L, M, H) 4.5 [1]: L (low solubility if the threshold concentration is <31.3 μM) | turbidity threshold (L, M, H) 6.8 [1]: M (moderate solubility if the threshold concentration is 31.3 μM to 250 μM) | turbidity threshold (L, M, H) 7.4 [1]: L (low solubility if the threshold concentration is <31.3 μM)

CNc1ncnc2[nH]cc(C(=O)c3ccc(NC4CCC(F)(F)CC4)nc3F)c12 [Compound P-4063, [6-[(4,4-difluorocyclohexyl)amino]-2-fluoro-3-pyridyl]-[4-(methylamino)-7H-pyrrolo[2,3-d]pyrimidin-5-yl]methanone]
IC50 (Fms kinase): < 0.01 µM | IC50 (CYP1A2): > 10 µM | turbidity threshold (L, M, H) 1.4 [1]: M (moderate solubility if the threshold concentration is 31.3 μM to 250 μM) | turbidity threshold (L, M, H) 4.5 [1]: M (moderate solubility if the threshold concentration is 31.3 μM to 250 μM) | turbidity threshold (L, M, H) 6.8 [1]: M (moderate solubility if the threshold concentration is 31.3 μM to 250 μM) | turbidity threshold (L, M, H) 7.4 [1]: M (moderate solubility if the threshold concentration is 31.3 μM to 250 μM)

CCc1ccc(Nc2ccc(C(=O)c3c[nH]c4ncnc(N)c34)c(F)n2)cn1 [Compound P-4065, (4-amino-7H-pyrrolo[2,3-d]pyrimidin-5-yl)-[6-[(6-ethyl-3-pyridyl)amino]-2-fluoro-3-pyridyl]methanone]
IC50 (Fms kinase): < 0.01 µM | IC50 (CYP1A2): > 10 µM | turbidity threshold (L, M, H) 1.4 [1]: H (high solubility if the threshold concentration is >250 μm) | turbidity threshold (L, M, H) 4.5 [1]: M (moderate solubility if the threshold concentration is 31.3 μM to 250 μM) | turbidity threshold (L, M, H) 6.8 [1]: M (moderate solubility if the threshold concentration is 31.3 μM to 250 μM) | turbidity threshold (L, M, H) 7.4 [1]: M (moderate solubility if the threshold concentration is 31.3 μM to 250 μM)

COc1ccc(Nc2ccc(C(=O)c3c[nH]c4ncnc(NC(C)C)c34)c(F)n2)cn1 [Compound P-4066, [2-fluoro-6-[(6-methoxy-3-pyridyl)amino]-3-pyridyl]-[4-(isopropylamino)-7H-pyrrolo[2,3-d]pyrimidin-5-yl]methanone]
IC50 (Fms kinase): < 0.01 µM | IC50 (CYP1A2): > 10 µM | turbidity threshold (L, M, H) 1.4 [1]: M (moderate solubility if the threshold concentration is 31.3 μM to 250 μM) | turbidity threshold (L, M, H) 4.5 [1]: L (low solubility if the threshold concentration is <31.3 μM) | turbidity threshold (L, M, H) 6.8 [1]: L (low solubility if the threshold concentration is <31.3 μM) | turbidity threshold (L, M, H) 7.4 [1]: M (moderate solubility if the threshold concentration is 31.3 μM to 250 μM)

COc1ccc(Nc2ccc(C(=O)c3c[nH]c4ncnc(NCC5CC5)c34)c(F)n2)cn1 [Compound P-4067, [4-(cyclopropylmethylamino)-7H-pyrrolo[2,3-d]pyrimidin-5-yl]-[2-fluoro-6-[(6-methoxy-3-pyridyl)amino]-3-pyridyl]methanone]
IC50 (Fms kinase): < 0.01 µM | IC50 (CYP1A2): > 10 µM | turbidity threshold (L, M, H) 1.4 [1]: H (high solubility if the threshold concentration is >250 μm) | turbidity threshold (L, M, H) 4.5 [1]: M (moderate solubility if the threshold concentration is 31.3 μM to 250 μM) | turbidity threshold (L, M, H) 6.8 [1]: M (moderate solubility if the threshold concentration is 31.3 μM to 250 μM) | turbidity threshold (L, M, H) 7.4 [1]: M (moderate solubility if the threshold concentration is 31.3 μM to 250 μM)

CCCNc1ncnc2[nH]cc(C(=O)c3ccc(Nc4ccc(OC)nc4)nc3F)c12 [Compound P-4068, [2-fluoro-6-[(6-methoxy-3-pyridyl)amino]-3-pyridyl]-[4-(propylamino)-7H-pyrrolo[2,3-d]pyrimidin-5-yl]methanone]
IC50 (Fms kinase): < 0.01 µM | IC50 (CYP1A2): > 10 µM | turbidity threshold (L, M, H) 1.4 [1]: H (high solubility if the threshold concentration is >250 μm) | turbidity threshold (L, M, H) 4.5 [1]: M (moderate solubility if the threshold concentration is 31.3 μM to 250 μM) | turbidity threshold (L, M, H) 6.8 [1]: M (moderate solubility if the threshold concentration is 31.3 μM to 250 μM) | turbidity threshold (L, M, H) 7.4 [1]: M (moderate solubility if the threshold concentration is 31.3 μM to 250 μM)
